The assay deals with CCL64 mink lung epithelial cells. Description: CCL64 TGF-β bioassay (growth, crystal violet). In kind it is cell-based. Particulars: human TGF-β1 and TGF-β2. As for the experimental part:
FIG. 1. Prevention of the growth inhibitory effects of recombinant and glioma-derived TGF-b1 and TGF-b2 by a TGF-β inhibitor (Compound No. 79 in Table 2). A. CCL64 cells were exposed to human recombinant TGF-b1 (filled symbols) or TGF-b2 (open symbols) (10 ng/ml) in the absence or presence of increasing concentrations of Comopund No. 79 for 72 h. B. CCL64 cells were maintained in serum-free medium containing heat-activated glioma cell SN (1:1) in the absence or presence of Compound No. 79 for 72 h. Growth was assessed by crystal violet assay (mean and SD, n=3).
The levels of bioactive TGF-β were determined using the CCL64 bioassay. Briefly, […] CCL64 cells were adhered to 96 well plates for 24 h, full medium was replaced by serum-free medium, and the cells were exposed to recombinant TGF-β1/2 or glioma cell culture supernatants diluted in serum-free medium for 72 h. Growth was assessed by crystal violet staining at 72 h. Glioma cell supernatants were harvested from confluent cultures maintained for 48 h in serum-free medium and heat-treated (5 min, 85° C.) to activate latent TGF-β (Leitlein et al., J. Immunol., 166:7238-7243 (2001)).

This note sets out measurements from patent US20050245508A1, “Treatment of malignant gliomas with TGF-beta inhibitors” (SCIOS, Inc., priority 2003, published 2005).

As to “TGF-β1: "Human recombinant TGF-β1 and TGF-β2 were obtained from Peprotech (London, UK)"”, the “EC50 of growth inhibitory effect on CCL64 cells” value came to 0.5 ng/mL. Next, “TGF-β2: "Human recombinant TGF-β1 and TGF-β2 were obtained from Peprotech (London, UK)"”: 0.5 ng/mL.
